In patent US10245255B2, “Compositions and methods for the treatment of obesity and related disorders” (THE REGENTS OF THE UNIVERSITY OF MICHIGAN, priority 2011, dated 2019):
“Also recorded” adds a separate entry of the source.

System: RAW264.7 cells
Assay: RAW264.7 cells stimulated with LPS or poly I:C: phosphorylation (immunoblot)
Format: cell-based
Details: for LPS or poly I:C-stimulated phosphorylation of IRF3: LPS 0.5 μg/ml or poly I:C 50 μg/ml; for phosphorylation of TBK1 on serine 172: LPS or poly I:C stimulated
Description: 3T3-L1 fibroblasts (American Type Culture Collection, Manassas, Va.) were cultured and differentiated using standard methods known in the art. […] 3T3-L1 adipocytes were serum starved with 0.5% fetal bovine serum (FBS) in Dulbecco's modified eagle medium (DMEM) prior to treatment. TNFα treatments (50 ng/mL unless otherwise noted) were performed during the 24 hour prior to harvest, after pretreatment with IKKβ inhibitor compound VIII (EMD Biosciences, Philadelphia, Pa.) for 1 hour where indicated. […] Cells were treated with or without 10 nM of insulin for 15 minutes. RAW264.7 cells were serum starved with 0.5% FBS DMEM media and pre-treated with or without Cay-10576 (Cayman Chemical, Ann Arbor, Mich.). The cells were then treated with LPS (0.5 μg/ml) or poly I:C (50 μg/ml) for 1 hour. Cells were harvested for total RNA and analyzed by real-time PCR Cell lysates were resolved on SDS-PAGE and analyzed by immunoblot using the indicated antibodies.

COc1cc2ncn(-c3cc(OCc4ccccc4S(C)(=O)=O)c(C#N)s3)c2cc1OC [Cay-10576]
LPS or poly I:C-stimulated phosphorylation of IRF3: blocked
LPS or poly I:C-stimulated phosphorylation of IRF3 (listed as cayman): reverses
phosphorylation of TBK1 on serine 172: stimulated
phosphorylation of TBK1 on serine 172 (listed as cayman): inducing
IKKβ phosphorylation (listed as cayman): increased; also recorded: inducing
